In US20220257581A1, “Treatment of Cancer” (Sumitomo Dainippon Pharma Oncology, Inc., priority 2019, published 2022):

Experiments:
[1] = tested on: patients with newly diagnosed, previously untreated AML
Procedure: Treatment Plan: Induction. Alvocidib was dose-escalated starting at dose level 1: 20 mg/m^2 30-minute IV bolus followed by 30 mg/m^2 IV infusion over 4 hours on Days 1-3 (FIG. 1). Daunorubicin 60 mg/m^2 IV bolus over 15 minutes was initiated on days 5-7, and cytarabine 100 mg/m^2/day IV continuous 24-hour infusion was administered on Days 5-11. A bone marrow aspirate and biopsy was performed on day 14 (+/−3 days) and patients with residual leukemia (>5% bone marrow blasts and >10% cellularity) were recommended to receive a second induction cycle with alvocidib on days 1-3 (same dose level as induction) followed by daunorubicin 45 mg/m^2/day IV over 15 minutes on days 5 and 6 and cytarabine 100 mg/m^2/day IV continuous infusion over days 5-9 (“5+2”).
Statistical Analysis. Alvocidib dose was escalated using a 3+3 design (FIG. 1). Successive cohorts of patients (3-6 per cohort) were treated with escalated doses until the maximal tolerated dose (MTD) was established. Intra-patient dose escalation was not permitted. Descriptive analysis was performed for the safety and efficacy endpoints. MTD for alvocidib was estimated by the highest alvocidib dose for which the incidence of DLT during Cycle 1 was less than 33% in combination with 7+3. Kaplan-Meier time-to-event analyses were performed on overall survival (OS), relapse-free survival and duration of remission. […]

[2] = tested on: patients with newly diagnosed, previously untreated AML; test: Phase 1 dose-escalation study of alvocidib followed by 7+3: response assessments (ELN Guidelines); assay type: in vivo, human; details: for Overall CR, n (%): Response Evaluable Population
Procedure: Methods: Study Population. This was a Phase 1, open-label, multicenter, dose-escalation study of alvocidib followed by cytarabine/daunorubicin (7+3) in patients with AML (NCT03298984). Patients aged 18-65 years with newly diagnosed, previously untreated AML and pathological confirmation of bone marrow (BM) blasts 20% were eligible. Key inclusion criteria included: Eastern Cooperative Oncology Group (ECOG) performance status (PS)≤2, serum creatinine level <1.8 mg/dL, alanine aminotransferase (ALT) and aspartate aminotransferase (AST)<5 times upper limit of normal (ULN), total bilirubin <2.0 mg/dL, and left ventricular ejection fraction (EF) >45%. Patients were excluded if they had previous treatment for AML (with the exception of hydroxyurea), and were diagnosed with acute promyelocytic leukemia (APL-M3) or core-binding factor AML ((CBF-AML: t(8;21); inv(16); t(16;16)). All patients provided written informed consent. This study was conducted as per the Declaration of Helsinki after approval by ethics committee of each participating center.
Treatment Plan: Induction.
Consolidation. Patients who achieved a complete remission (CR) received 2 to 4 cycles of consolidation therapy with high dose cytarabine (HiDAC) 3 gm/m^2 IV every 12 hours on days 1, 3 and 5 upon full hematological recovery (absolute neutrophil count ≥[…] and platelets >[…]). HiDAC was permitted to be dose reduced to 1.5 gm/m^2 IV every 12 hours on days 1, 3 and 5 in those >60 years. Allogeneic stem cell transplantation was permitted after induction per standard of care but was recommended after at least 1 cycle of HiDAC consolidation in those who achieved CR.
Response Assessments. Response assessment was performed by a bone marrow aspirate and biopsy at the time of full hematologic recovery or by day 50 and day 60 of 1 versus 2 induction cycles, respectively. Response to therapy was assessed by standardized ELN Guidelines. In those who achieved CR and received consolidation therapy, a bone marrow aspirate and biopsy was performed after cycle 2 of HiDAC, after completion of consolidation therapy, and at any suspicion of relapse.

[3] = tested on: patients with newly diagnosed, previously untreated AML; test: Kaplan-Meier time-to-event analyses and clinical outcomes of the Phase 1 study; assay type: in vivo, human
Description: Statistical Analysis. […] Intra-patient dose escalation was not permitted. […] Database lock was on Apr. 30, 2020.

[4] = tested on: patients with newly diagnosed, previously untreated AML; test: Minimal residual disease (MRD) analysis of bone marrow by flow cytometry in the Phase 1 study; assay type: in vivo, human
Procedure: Minimal Residual Disease (MRD) Analysis. MRD was assessed in bone marrow samples at the time of response by a uniform central assay (Hematologics, Inc.) in an exploratory cohort, as has been previously described. Samples were first incubated with antibodies for 20 minutes at room temperature. Red blood cells were then lysed at 37° C. using buffered NH4Cl for 5 minutes, followed by centrifugation at 300 g. Cells were subsequently washed with PBS supplemented with 2% FCS and resuspended in 1% paraformaldehyde. Samples were analyzed on a FACSCalibur™ flow cytometer (Becton Dickinson Biosciences). 200,000 events were analyzed for each sample. Data analysis was performed with WinList™ software (Verity Software House). Two independent reviewers viewed each sample to arrive at a consensus on the data.

[5] = tested on: MDS blasts; test: MCL-1 dependency assay of MDS blasts after azacitidine pre-treatment; assay type: cell-based, human; details: MCL-1 dependency cut-off of 40%
Procedure: CD13, CD33, CD34, CD45, CD3 and CD20 were used as markers to identify MDS blasts, and to perform MCL-1 dependency analyses. MDS blasts were positive for CD13, CD33 and CD34, dim for CD45 and negative for CD3 and CD20.
On day 1 of the MCL-1 dependency assay, 5×10^4-1×10^5 HS-5 feeder cells were plated into a 6-well plate, and allowed to attached overnight. HS-5 feeder cells improve viability of frozen MDS bone marrow mononuclear cells (BMMCs) after thawing. On day 2 of the assay, MDS BMMCs were thawed, and divided into three treatment groups corresponding to treatment with DMSO, treatment with 1 μM azacitidine or treatment with 2.5 μM azacitidine. On day 4, after a 48-hour treatment period, MCL-1 dependency of MDS blasts, lymphocytes and monocytes were separately assessed.

[6] = Response Evaluable Population (N = 31), alvocidib followed by 7+3

SMILES: CN1CC[C@H](c2c(O)cc(O)c3c(=O)cc(-c4ccccc4Cl)oc23)[C@H](O)C1 [alvocidib, 2-(2-chlorophenyl)-5,7-dihydroxy-8-[(3S,4R)-3-hydroxy-1-methylpiperidin-4-yl]chromen-4-one]
- MTD (maximum tolerated dose) of alvocidib ([1]; IV bolus/IV infusion on Days 1-3, in combination with 7+3): (30/60 mg/m^2)
- safety and feasibility ([1]; in vivo): safe, feasible
- patients achieving CR after re-induction therapy ([2]; 3 patients re-induced with alvocidib and 5+2): None
- CR rate ([2]; AML with mutated chromatin, RNA-splicing genes, or both (9/10)): 90%
- patients achieving CR ([2]; MRD exploratory cohort of 12 patients at recommended phase 2 dose): 75%
- CR, n (%) [2, 6]: 22 (71.0%) n (%)
- CRi (%) [2, 6]: 0%
- Overall CR/CRi, n (%) [2, 6]: 22 (71.0%) n (%)
- Overall Response Rate (CR + CRi + PR) [2, 6]: 24 (77.4%) n (%)
- PR, n (%) [2, 6]: 2 (6.5%) n (%)
- Overall CR, n (%) ([2]; ELN-risk Adverse (n = 15)): 9 (60.0%) n (%)
- Overall CR, n (%) ([2]; ELN-risk Favorable (n = 9)): 8 (88.9%) n (%)
- Overall CR, n (%) ([2]; ELN-risk Intermediate (n = 7)): 5 (71.4%) n (%)
- Overall CR, n (%) ([2]; SWOG cytogenetics risk Favorable (n = 0)): 0 (0.0%) n (%)
- Overall CR, n (%) ([2]; SWOG cytogenetics risk Intermediate (n = 19)): 15 (78.9%) n (%)
- Overall CR, n (%) ([2]; SWOG cytogenetics risk Unfavorable (n = 12)): 7 (58.3%) n (%)
- Overall CR, n (%) ([2]; SWOG cytogenetics risk Unknown (n = 0)): 0 (0.0%) n (%)
- Overall CR, n (%) ([2]; subgroup AML with MRC (n = 11)): 6 (54.5%) n (%)
- Overall CR, n (%) ([2]; subgroup Age <60 years (n = 21)): 16 (76.2%) n (%)
- Overall CR, n (%) ([2]; subgroup Age ≥60 years (n = 10)): 6 (60.0%) n (%)
- Overall CR, n (%) ([2]; subgroup At MTD (n = 23)): 15 (65.2%) n (%)
- Overall CR, n (%) ([2]; subgroup Secondary AML (n = 5)): 3 (60.0%) n (%)
- patients with no evidence of residual leukemia on day 14 assessment ([2]; all enrolled patients): 91%
- CR rate ([2]; all enrolled patients (n=32)): 69%
- overall response rate (ORR: CR+partial remission (PR)) ([2]; all enrolled patients (n=32)): 75%
- Overall CR rate ([2]; all enrolled, ELN adverse-risk (9 of 16)): 56%
- Overall CR rate ([2]; all enrolled, ELN favorable-risk (8 of 9)): 89%
- Overall CR rate ([2]; all enrolled, ELN intermediate-risk (5 of 7)): 71%
- CR rate ([2]; dose level 1 (3 of 3), all ELN favorable-risk): 100%
- CR rate ([2]; genomic signature specific for secondary AML (ASXL1, BCOR, EZH2, SF3B1, SRSF2, STAG2, U2AF1, or ZRSR2) (11/12)): 92%
- Overall CR rate ([2]; patients with ASXL1 mutations (5/6)): 83%
- CR rate ([2]; patients with MCL-1 scores greater than 30% (10/12)): 83%
- CR rate ([2]; patients with MCL-1 scores less than 30% (10/15)): 67%
- CR rate ([2]; patients with NPM1 mutations (8/10)): 80%
- Overall CR rate ([2]; patients with RUNX1 mutations (4/5)): 80%
- patients achieving CR ([2]; patients with a TP53 mutation (1/3)): 33%
- patients achieving CR ([2]; recommended phase 2 dose level (15/23)): 65%
- CR rate ([2]; response-evaluable patients): 71%
- ORR ([2]; response-evaluable patients): 77%
- median duration of CR ([3]; 7 relapsed CR patients, range: 1.4-13.6 months): 8.6 months
- Median EFS ([3]; 32 patients, 95% CI: 2.0, NA): 10.0 months
- Landmark 1-year OS ([3]; 32 patients, 95% CI: 41.9, 77.4%): 62.4%
- median OS ([3]; 32 patients, median follow-up 9.2 months): not reached
- Landmark 2-year EFS ([3]; 95% CI: 15.4, 53.8%): 34.1%
- Landmark 1-year EFS ([3]; 95% CI: 21.9, 59.1%): 40.9%
- Landmark 1-year RFS ([3]; 95% CI: 31.7, 79.1%): 59.5%
- relapsed to date ([3]; of the 22 CR patients): 32%
- remain in CR ([3]; patients who achieved CR without MRD): 82%
- relapsed ([3]; patients who achieved CR without evidence of MRD): 18%
- median RFS ([3]; time from CR/CRi up to relapse or death): not reached
- MRD-negative among patients who achieved CR ([4]; 22 CR patients, standardized flow cytometry and/or institutional standard assessment): 50%
- MRD-negative among patients who achieved CR ([4]; ELN adverse-risk disease (4/9)): 44%
- MRD-negative CR, overall ([4]; MRD exploratory cohort, 8 of 12 patients): 67%
- MRD-negative among CR patients ([4]; MRD exploratory cohort, centralized flow cytometry (8/9)): 89%
- MRD-negative CR ([4]; MRD exploratory cohort, ELN adverse-risk patients (3 out of 4)): 75%
- CR with evidence of MRD ([4]; MRD exploratory cohort, one patient with adverse-risk disease): 11%

SMILES: Nc1ncn([C@@H]2O[C@H](CO)[C@@H](O)[C@H]2O)c(=O)n1 [azacitidine]
- patient samples with an increase in MCL-1 dependency ([5]; 1 μM or 2.5 μM azacitidine, 48-hour treatment): 10/12
- effect on MCL-1 dependency status of blasts ([5]; patient sample MDS1060): rendered MCL-1-independent blasts MCL-1 dependent
